{"source": "patent US20220305052A1", "about": "“METERED DOSE FOR DISORDERS IN OR AROUND THE EYE” (Azura Ophthalmics Ltd., priority 2019, published 2022)", "key": {"[1]": {"conditions": "5 μL, twice-weekly or once-daily, 3 months"}, "lower eyelid": {"tested_on": "lower eyelid", "conditions": "rabbit, in vivo", "excerpt": "On a subsequent study to Example 6, concentrations ranging from 0.5 wt. % to 2.5 wt. % were used on New-Zealand rabbits, once daily to twice weekly for 28 days."}, "[2]": {"tested_on": "lower eyelid of the right eye", "experimental": "The eye was treated with lubricants and local NSAID, and the keratitis resolved within 48 hours."}, "rabbit dermis": {"tested_on": "rabbit dermis", "conditions": "in vivo; cited from earlier work"}, "[3]": {"tested_on": "lower eyelid of the rabbits", "conditions": "rabbit, in vivo", "experimental": "The composition is prepared by the combination of selenium disulfide (SeS2) in combination with Petrolatum base (and in the absence of surface acting agents). Compositions comprising various concentrations of selenium disulfide are prepared, such as 0.1 wt. %, 0.5 wt. %, 1 wt. %, 1.5 wt. %, 2 wt. %, and 2.5 wt. %.\nVarious compositions prepared as described above are administered to the eye or eyelid (e.g., margin thereof) of albino rabbits. Various compositions are administered to distinct cohorts using various treatment protocols, such as based on frequency of administration (e.g., once daily, twice daily, every other day, and once weekly) and volume of administration (e.g., <25 μL or >25 μL per administration). Compositions lacking selenium disulfide are administered to a separate cohort to establish a control.\nAlbino rabbits are evaluated, and an accurate volume of the composition is ejected from a device (e.g., micropipette) and is delivered to the lower eyelid of the rabbits (FIG. 2). […] In one example, the volume is ˜25 μL (equivalent to 20 mg in weight). The rabbits are examined daily."}, "[4]": {"tested_on": "seborrheic blepharitis patients", "conditions": "cited from earlier work"}}, "note": "Read-outs that look alike come from different tables or passages of the source.", "data": [{"compound": "S=[Se]=S", "note": "[SeS2, selenium disulfide]", "values": [{"measurement": "safety and tolerability (independent Data Review Committee)", "setting": "[1]; 0.1 wt. %, nine patients", "result": "safe and well tolerated"}, {"measurement": "safety and tolerability (independent Data Review Committee)", "setting": "[1]; 0.5 wt. %, ten patients", "result": "safe and well tolerated"}, {"measurement": "safety and tolerability (independent Data Review Committee)", "setting": "[1]; 1 wt. %, nine patients", "result": "safe and well tolerated"}, {"measurement": "ophthalmic observations compared with Example 6", "setting": "lower eyelid", "result": "safer"}, {"measurement": "time until pain was reported", "setting": "[2]; 2.5 wt. % SeS2 with petrolatum, 25 μL (20 mg), one healthy person", "result": "About 4 hours"}, {"measurement": "finding on clinical examination", "setting": "[2]; 2.5 wt. % SeS2 with petrolatum, 25 μL (20 mg), multiple punctate over the center exposed part of the cornea", "result": "keratitis was observed"}, {"measurement": "time to resolution of keratitis", "setting": "[2]; 2.5 wt. %, 25 μL, eye treated with lubricants and local NSAID", "result": "≤ 48", "unit": "h"}, {"measurement": "dermal irritation", "setting": "rabbit dermis", "result": "did not appear to be irritant to rabbit dermis"}, {"measurement": "animals with corneal staining", "setting": "[3]", "result": "5/6"}, {"measurement": "clinical or microscopic findings", "setting": "[3]", "result": "no clinical or microscopic findings"}, {"measurement": "signs of keratitis, including red and swollen eyelids", "setting": "[3]", "result": "all animals showed signs of keratitis"}, {"measurement": "tolerability of ointment on the lids", "setting": "[4]; 0.5 weight percent ointment (Abbott), all patients complained of burning of the conjunctiva (Rychener)", "result": "too strong"}, {"measurement": "epithelial keratitis", "setting": "[4]; human, in vivo", "result": 6, "unit": "cases"}, {"measurement": "epithelial keratitis persisting as long as a week", "setting": "[4]; human, in vivo", "result": 1, "unit": "cases"}, {"measurement": "epithelial keratitis persisting for a matter of days", "setting": "[4]; human, in vivo", "result": 2, "unit": "cases"}, {"measurement": "epithelial keratitis, transient", "setting": "[4]; human, in vivo", "result": 4, "unit": "cases"}, {"measurement": "keratitis, conjunctivitis with erythematous and swollen lids", "setting": "[4]; human, in vivo", "result": "Two"}, {"measurement": "patients developing moderately severe conjunctivitis", "setting": "[4]; human, in vivo", "result": 1, "unit": "%"}, {"measurement": "side effect across the studies", "setting": "[4]; human, in vivo", "result": "self-limiting keratitis"}]}]}
